Data set [1] in a line: Detection of MIND4 in mouse brain after escalated i.p. dosing. In kind it is in vivo. Particulars: brain cortex, intraperitoneal, i.p. daily, escalated 50 to 275 mg/kg, 2 hours after last dose, HPLC, read-out: Concentration in wild type mouse cortices. The procedure:
To evaluate whether MIND4 would also confer an anti-inflammatory effect in vivo, pilot studies were performed to assess brain permeability of MIND4 in mice (FIG. 7A-B). MIND4 was solubilized at 5 mg/ml in 7.5% Cremophor EL (BASF)/2.375% Ethanol in PBS, Wild type mice (N=3) were subjected to MIND4 treatment at escalated dosing from 50 mg/kg up to a final dose of 275 mg/kg administered daily by intraperitoneal (i.p.) injection. […] Mice were sacrificed 2 hours following the last drug administration and isolated cortical samples were subjected to HPLC analysis.
Specifically, frozen mouse cortical tissues were extracted in ice cold methanol containing 0.4% acetic acid (approximately 1:6 ratios), probe sonicated for 5 sec and centrifuged at 22000×g for 20 min at 4 C. The supernatant was dried under centrifugation and vacuum and reconstituted with running buffer. Reverse phase-HPLC/ECA separation was accomplished on shisedo MG240 C18 HPLC column (4.6×250 mm, 3μ particle size), flow rate 1 ml/min, using 50% methanol in 0.1M sodium phosphate buffer pH 3, isocratic elution was performed for 20 min using 4 channel electrochemical array. Levels of MIND4 in the brain samples were determined using integrated peak areas and the standard curves

The subject of data set [2] is α-tubulin (lysine K40) acetylation in ST14A cells. Description: α-Tubulin acetylation in differentiated ST14A cells. The data set is classed as cell-based, rat. Particulars: mutant HD and wild type ST14A cells, 6 hours. The procedure:
Compound bioactivity was tested in the rat embryonic striatal cell lines ST14A, which stably express either a mutant expanded repeat (128Q) or wild type (26Q) 546 amino acid huntingtin (HTT) fragment (a generous gift of E. Cattaneo) (Ehrlich et al., 2001) ST14A cells were propagated at 33° C. in the presence of serum. To induce neuronal differentiation, cells were serum deprived and cultured at 37° C. in the presence of N2 supplement. […]
This increased α-tubulin acetylation in compound-treated cells was consistent with the activity of MIND4 as a SIRT2 inhibitor.

The test system of the next data set is TNFα. Description: TNFα protein in brain of HD mouse model R6/2. In kind it is in vivo. Particulars: R6/2 mice, daily i.p. 50 mg/kg, 4 weeks. The procedure:
To assess protein levels, cell extracts were prepared from cells washed with PBS and lysed with buffer containing 2% SDS, Complete EDTA-free Protease Inhibitor Cocktail (Roche) and 1 mM phenylmethylsulfonyl fluoride. To prepare brain extracts for analysis, frozen mouse cortical tissues were homogenized in PBS containing protease inhibitors with an Kontes Pellet Pestle (Kimble/Kontes). They were later sonicated and lysed overnight at 4° C. in 2× volume of lysis buffer containing 2% SDS and protease inhibitors. Protein concentrations in ST14A cell extracts and homogenized cortical tissues were evaluated using a BCA analysis kit and normalized. Samples were prepared in a SDS buffer containing DTT and separated on bis-acrylamide protein gels via electrophoresis and transferred onto a 0.2 μm PVDF membrane). […]
For this animal trial, the well-characterized transgenic R6/2 mouse model of HD was selected, in which severe neurological phenotypes and premature death at age of 12-13 week is conferred by expression of a human HTT exon 1 fragment containing a pathological ˜150Q repeat tract (Mangiarini et al., 1996). […] Body weights were recorded weekly at the same time of day. At 10 weeks of age, mice were sacrificed 2 hrs after the last injection; brains were removed and snap frozen in liquid nitrogen and kept frozen at −80° C. until analyzed. […]

The test system of another data set is primary astrocytes. Description: IL-6 release from primary astrocytes of wild type and YAC128 mice (ELISA). In kind it is cell-based, mouse. The conditions noted are these: CSE-stimulated wild type and YAC128 astrocytes. The procedure:
Whole brains were obtained from post-natal 1 to 3 day old wild type and YAC128 mouse pups on the FVB/N strain background and placed in Hanks Balanced Salt Solution (HBSS; Invitrogen) on ice. Meninges were removed and the remaining brain tissue was placed into growth medium (DMEM [Invitrogen], 10% FBS [PAA], 1% L-glutamine [Invitrogen], 1% penicillin/streptomycin [Invitrogen]), and homogenized using a 5 ml pipette. Cells of each brain were pelleted, re-suspended in growth medium and transferred into a T150 flask, cultured at 37° C. with 5% CO2. Growth medium was replaced after 24 hr and then every 7 days. After 18 to 21 days in culture, loosely attached microglia were harvested and seeded at 1.4×10^5 cells/ml with pre-incubated conditioned media into 96-well PRIMARIA™ tissue culture plates (BD Falcon). Adherent astrocytes were plated at 1.4×10^5 cells/ml in 10% FBS media for 24 hr in 96-well PRIMARIA™ tissue culture plates. After the initial isolation microglia and astrocytes were seeded at a density of 1.4×10^5 cells/ml into 96-well PRIMARIA™ tissue culture plates. […] Cells were lysed and total protein levels were determined using the microBCA kit (Thermo Scientific). Supernatants were analyzed using mouse IL-6 ELISA (e-Biocience) and IL-6 levels were normalized to total protein levels.
(In general: ELISA stands for enzyme-linked immunosorbent assay.)

On to `O=[N+]([O-])c1ccc(Sc2nnc(COc3ccccc3)n2-c2ccccc2)c2ncccc12` [MIND4, 5-nitro-8-{[5-(phenoxymethyl)-4-phenyl-4H-1,2,4-triazol-3-yl]thio}quinoline], for which the concentration at 2 h in data set [1] was approximately 500 nM. Further, the “Acetylation of α-tubulin (lysine K40)” value in data set [2] is given as “dose dependent increase in acetylation of α-tubulin”. Moreover, the “TNFα protein levels in cortical extracts” value in the data set on TNFα is given as “striking reduction of TNFα”.
For the compound `O=[N+]([O-])c1ccc(Sc2nnc(COc3ccccc3)n2-c2ccccc2)nc1` [MIND4-17], the IL-6 release result in the data set on primary astrocytes is given as “dose-response reduction of IL-6 release”.

The record behind these values is patent publication US9737525B2, “Small molecule activators of NRF2 pathway” (The General Hospital Corporation, priority 2013, dated 2017).
